According to ChEMBL document CHEMBL1139006, “Synthesis and in vitro antibiotic activity of 16-membered 9-O-arylalkyloxime macrolides” (2006):
≈ marks a conversion by molar mass, not a printed value.

How the values were obtained:
Type in all cases: functional
Streptococcus pneumoniae [1] = experiment: Antibacterial activity against Streptococcus pneumoniae ATCC 6301
Streptococcus pneumoniae [2] = experiment: Antibacterial activity against Streptococcus pneumoniae ATCC 700671
Streptococcus pneumoniae [3] = experiment: Antibacterial activity against macrolide resistant Streptococcus pneumoniae ATCC 700676
Streptococcus pneumoniae [4] = experiment: Antibacterial activity against macrolide resistant Streptococcus pneumoniae ATCC 700677
Streptococcus pneumoniae [5] = experiment: Antibacterial activity against macrolide resistant Streptococcus pneumoniae ATCC 700905
Streptococcus pneumoniae [6] = experiment: Antibacterial activity against macrolide resistant Streptococcus pneumoniae ATCC 700906
Streptococcus pneumoniae [7] = experiment: Antibacterial activity against Streptococcus pneumoniae ATCC 49619
Staphylococcus aureus [8] = experiment: Antibacterial activity against Staphylococcus aureus ATCC 6538p
Staphylococcus aureus [9] = experiment: Antibacterial activity against macrolide resistant Staphylococcus aureus ATCC 33591
Staphylococcus aureus [10] = experiment: Antibacterial activity against macrolide resistant Staphylococcus aureus ATCC 141541
Staphylococcus aureus [11] = experiment: Antibacterial activity against macrolide resistant Staphylococcus aureus ATCC BAA-39
Staphylococcus aureus [12] = experiment: Antibacterial activity against macrolide resistant Staphylococcus aureus ATCC BAA-44
Staphylococcus aureus [13] = experiment: Antibacterial activity against Staphylococcus aureus ATCC 29213
[14] = tested on: Staphylococcus epidermidis; experiment: Antibacterial activity against Staphylococcus epidermidis ATCC 12228
Enterococcus faecalis = experiment: Antibacterial activity against Enterococcus faecalis ATCC 51575
Haemophilus influenzae [15] = experiment: Antibacterial activity against Haemophilus influenzae ATCC 9006
Haemophilus influenzae [16] = experiment: Antibacterial activity against Haemophilus influenzae ATCC 49766
Haemophilus influenzae [17] = experiment: Antibacterial activity against Haemophilus influenzae EH001
Haemophilus influenzae [18] = experiment: Antibacterial activity against Haemophilus influenzae EH002
Haemophilus influenzae [19] = experiment: Antibacterial activity against Haemophilus influenzae EH003

Row | SMILES | MIC (Streptococcus pneumoniae [1]) [µg/mL] | MIC (Streptococcus pneumoniae [2]) [µg/mL] | MIC (Streptococcus pneumoniae [3]) [µg/mL] | MIC (Streptococcus pneumoniae [4]) [µg/mL] | MIC (Streptococcus pneumoniae [5]) [µg/mL] | MIC (Streptococcus pneumoniae [6]) [µg/mL] | MIC (Streptococcus pneumoniae [7]) [µg/mL] | MIC (Staphylococcus aureus [8]) [µg/mL] | MIC (Staphylococcus aureus [9]) [µg/mL] | MIC (Staphylococcus aureus [10]) [µg/mL] | MIC (Staphylococcus aureus [11]) [µg/mL] | MIC (Staphylococcus aureus [12]) [µg/mL] | MIC (Staphylococcus aureus [13]) [µg/mL] | MIC [14] [µg/mL] | MIC (Enterococcus faecalis) [µg/mL] | MIC (Haemophilus influenzae [15]) [µg/mL] | MIC (Haemophilus influenzae [16]) [µg/mL] | MIC (Haemophilus influenzae [17]) [µg/mL] | MIC (Haemophilus influenzae [18]) [µg/mL] | MIC (Haemophilus influenzae [19]) [µg/mL]
1 | CC[C@H]1OC(=O)C[C@@H](O)[C@H](C)[C@@H](O[C@@H]2O[C@H](C)[C@@H](O)[C@H](N(C)C)[C@H]2O)[C@@H](CC=O)C[C@@H](C)C(=N/OCCCCc2cnc3ccccc3c2)/C=C/C(C)=C/C1CO (some centres undefined) | 0.025 (≈ 0.0314 µM) | 0.025 (≈ 0.0314 µM) | 0.025 (≈ 0.0314 µM) | 0.025 (≈ 0.0314 µM) | 0.025 (≈ 0.0314 µM) | > 12.5 | 0.049 (≈ 0.0616 µM) | 0.025 (≈ 0.0314 µM) | > 12.5 | 0.2 (≈ 0.251 µM) | > 12.5 | > 12.5 | 0.2 (≈ 0.251 µM) | 0.2 (≈ 0.251 µM) | > 12.5 | 6.25 (≈ 7.85 µM) | 6.25 (≈ 7.85 µM) |  |  | 
2 | CC[C@H]1OC(=O)C[C@@H](O)[C@H](C)[C@@H](O[C@@H]2O[C@H](C)[C@@H](O)[C@H](N(C)C)[C@H]2O)[C@@H](CCN2CC(C)CC(C)C2)C[C@@H](C)C(=N/OCCCc2ccc3ncccc3c2)/C=C/C(C)=C/C1CO (some centres undefined) | 0.025 (≈ 0.0284 µM) | 0.049 (≈ 0.0557 µM) | 0.025 (≈ 0.0284 µM) | > 12.5 | 0.025 (≈ 0.0284 µM) | > 12.5 | 0.025 (≈ 0.0284 µM) |  |  |  |  |  |  |  |  | 1.56 (≈ 1.77 µM) | 3.12 (≈ 3.55 µM) | 3.12 (≈ 3.55 µM) | 3.12 (≈ 3.55 µM) | 1.56 (≈ 1.77 µM)
3 | CC[C@H]1OC(=O)C[C@@H](O)[C@H](C)[C@@H](O[C@@H]2O[C@H](C)[C@@H](O)[C@H](N(C)C)[C@H]2O)[C@@H](C=O)C[C@@H](C)C(=N\OCCCc2ccc3ncccc3c2)/C=C/C(C)=C/C1CO (some centres undefined) | 0.025 (≈ 0.0326 µM) | 0.098 (≈ 0.128 µM) | 0.025 (≈ 0.0326 µM) | > 12.5 | 0.025 (≈ 0.0326 µM) | > 12.5 | 0.025 (≈ 0.0326 µM) |  |  |  |  |  |  |  |  | 1.56 (≈ 2.03 µM) | 3.12 (≈ 4.06 µM) | 3.12 (≈ 4.06 µM) | 6.25 (≈ 8.14 µM) | 3.12 (≈ 4.06 µM)
4 | CC[C@H]1OC(=O)C[C@@H](O)[C@H](C)[C@@H](O[C@@H]2O[C@H](C)[C@@H](O)[C@H](N(C)C)[C@H]2O)[C@@H](CC=O)C[C@@H](C)C(=N\OCCCOc2ccc3ncccc3c2)/C=C/C(C)=C/C1CO (some centres undefined) | 0.025 (≈ 0.0313 µM) | 0.025 (≈ 0.0313 µM) | 0.025 (≈ 0.0313 µM) | 0.2 (≈ 0.251 µM) | 0.025 (≈ 0.0313 µM) | > 12.5 | 0.01 (≈ 0.0125 µM) | 0.025 (≈ 0.0313 µM) | > 12.5 | 0.2 (≈ 0.251 µM) | > 12.5 | > 12.5 | 0.098 (≈ 0.123 µM) | 0.098 (≈ 0.123 µM) | > 12.5 | 6.25 (≈ 7.83 µM) | 6.25 (≈ 7.83 µM) |  |  | 
5 | CC[C@H]1OC(=O)C[C@@H](O)[C@H](C)[C@@H](O[C@@H]2O[C@H](C)[C@@H](O)[C@H](N(C)C)[C@H]2O)[C@@H](CC=O)C[C@@H](C)C(=O)/C=C/C(C)=C/C1CO (some centres undefined) | 0.025 (≈ 0.0418 µM) | 0.049 (≈ 0.082 µM) | 0.78 (≈ 1.3 µM) | 6.25 (≈ 10.5 µM) | 0.78 (≈ 1.3 µM) | > 12.5 | 0.098 (≈ 0.164 µM) | 0.39 (≈ 0.652 µM) | > 12.5 | 1.56 (≈ 2.61 µM) | > 12.5 | > 12.5 | 0.78 (≈ 1.3 µM) | 0.39 (≈ 0.652 µM) | > 12.5 | 1.56 (≈ 2.61 µM) | 1.56 (≈ 2.61 µM) | 3.12 (≈ 5.22 µM) | 6.25 (≈ 10.5 µM) | 1.56 (≈ 2.61 µM)
6 | CC[C@H]1OC(=O)[C@H](C)[C@@H](O[C@H]2C[C@@](C)(OC)[C@@H](O)[C@H](C)O2)[C@H](C)[C@@H](O[C@@H]2O[C@H](C)C[C@H](N(C)C)[C@H]2O)[C@](C)(O)C[C@@H](C)C(=O)[C@H](C)[C@@H](O)[C@]1(C)O [ERYTHROMYCIN] | 0.025 (≈ 0.0341 µM) | 0.049 (≈ 0.0668 µM) | 6.25 (≈ 8.52 µM) | 6.25 (≈ 8.52 µM) | 3.12 (≈ 4.25 µM) | > 12.5 | 0.049 (≈ 0.0668 µM) | 0.098 (≈ 0.134 µM) | > 12.5 |  | > 12.5 | > 12.5 | 0.2 (≈ 0.273 µM) | 0.2 (≈ 0.273 µM) | > 12.5 | 1.56 (≈ 2.13 µM) | 6.25 (≈ 8.52 µM) | 3.12 (≈ 4.25 µM) | 6.25 (≈ 8.52 µM) | 3.12 (≈ 4.25 µM)
7 | CC[C@H]1OC(=O)[C@H](C)C(=O)[C@H](C)[C@@H](O[C@@H]2O[C@H](C)C[C@H](N(C)C)[C@H]2O)[C@](C)(OC)C[C@@H](C)C(=O)[C@H](C)[C@H]2N(CCCCn3cnc(-c4cccnc4)c3)C(=O)O[C@]12C [TELITHROMYCIN] | 0.025 (≈ 0.0308 µM) | 0.025 (≈ 0.0308 µM) | 0.098 (≈ 0.121 µM) | 0.025 (≈ 0.0308 µM) | 0.025 (≈ 0.0308 µM) | 0.2 (≈ 0.246 µM) | 0.049 (≈ 0.0603 µM) |  |  |  |  |  |  |  |  | 1.56 (≈ 1.92 µM) | 3.12 (≈ 3.84 µM) | 1.56 (≈ 1.92 µM) | 6.25 (≈ 7.7 µM) | 1.56 (≈ 1.92 µM)
